In ChEMBL document CHEMBL4000195, “Design and synthesis of novel 7-aminosubstituted pyrido[2,3-b]pyrazines exhibiting anti-breast cancer activity” (Eur J Med Chem, 2017):
The source made the active and inactive calls. No cut-off for these calls is given here.

Key:
MCF7 [1] = assay: Cytotoxicity against human MCF7 cells at 10 uM by MTT assay; assay type: functional
MDA-MB-231 [2] = assay: Cytotoxicity against human MDA-MB-231 cells at 10 uM by MTT assay; assay type: functional
HCC1954 [3] = assay: Cytotoxicity against human HCC1954 cells at 10 uM by MTT assay; assay type: functional
T47D [4] = assay: Cytotoxicity against human T47D cells at 10 uM by MTT assay; assay type: functional
MDA-MB-231 [5] = assay: Cytotoxicity against human MDA-MB-231 cells at 5 uM by MTT assay; assay type: functional
MCF7 [6] = assay: Cytotoxicity against human MCF7 cells at 5 uM by MTT assay; assay type: functional
HCC1954 [7] = assay: Cytotoxicity against human HCC1954 cells at 5 uM by MTT assay; assay type: functional
T47D [8] = assay: Cytotoxicity against human T47D cells at 5 uM by MTT assay; assay type: functional
[9] = target: Dual specificity protein kinase CLK1 (Mus musculus) (UniProt P22518); assay: Inhibition of mouse CLK1
Sus scrofa = species on record: Sus scrofa; assay: Inhibition of pig CK1delta/epsilon
[10] = target: Receptor-interacting serine/threonine-protein kinase 3 (Homo sapiens) (UniProt Q9Y572); assay: Inhibition of human RIPK3
[11] = target: Aurora kinase B/Inner centromere protein (Homo sapiens) (UniProt Q96GD4+Q9NQS7); assay: Inhibition of human AURKB/INCENP; assay type: protein-complex assay
T47D [12] = assay: Cytotoxicity against human T47D cells by MTT assay; assay type: functional, cell-based
[13] = target: Phosphatidylinositol 4,5-bisphosphate 3-kinase catalytic subunit alpha isoform (Homo sapiens, UniProt P42336); assay: Inhibition of PI3Kalpha catalytic domain (unknown origin) using PIP2 liposomes as substrate in presence of biotin-labeled PIP3 and GST-GRP1-PH by streptavidin-HRP based assays
[14] = target: Cyclin-dependent kinase 5/CDK5 activator 1 (Homo sapiens) (UniProt Q00535+Q15078); assay: Inhibition of human CDK5/p25 using histone H1 as substrate in presence of [gamma33P]ATP after 30 mins by scintillation counting method; assay type: protein-complex assay
[15] = target: Dual specificity tyrosine-phosphorylation-regulated kinase 1A (Rattus norvegicus) (UniProt Q63470); assay: Inhibition of rat DYRK1A using myelin basic protein as substrate in presence of [gamma33P]ATP after 30 mins by scintillation counting method
[16] = target: Vascular endothelial growth factor receptor 2 (Homo sapiens) (UniProt P35968); assay: Inhibition of recombinant human GST-tagged VEGFR-2 (789-end residues) transphosphorylation activity expressed in baculovirus infected Sf9 cells using poly[Glu:Tyr] (4:1) as substrate after 60 mins
[17] = target: T1, Serine/threonine-protein kinase haspin (Homo sapiens) (UniProt Q8TF76); assay: Inhibition of human HASPIN
T1 sequence (whole entry): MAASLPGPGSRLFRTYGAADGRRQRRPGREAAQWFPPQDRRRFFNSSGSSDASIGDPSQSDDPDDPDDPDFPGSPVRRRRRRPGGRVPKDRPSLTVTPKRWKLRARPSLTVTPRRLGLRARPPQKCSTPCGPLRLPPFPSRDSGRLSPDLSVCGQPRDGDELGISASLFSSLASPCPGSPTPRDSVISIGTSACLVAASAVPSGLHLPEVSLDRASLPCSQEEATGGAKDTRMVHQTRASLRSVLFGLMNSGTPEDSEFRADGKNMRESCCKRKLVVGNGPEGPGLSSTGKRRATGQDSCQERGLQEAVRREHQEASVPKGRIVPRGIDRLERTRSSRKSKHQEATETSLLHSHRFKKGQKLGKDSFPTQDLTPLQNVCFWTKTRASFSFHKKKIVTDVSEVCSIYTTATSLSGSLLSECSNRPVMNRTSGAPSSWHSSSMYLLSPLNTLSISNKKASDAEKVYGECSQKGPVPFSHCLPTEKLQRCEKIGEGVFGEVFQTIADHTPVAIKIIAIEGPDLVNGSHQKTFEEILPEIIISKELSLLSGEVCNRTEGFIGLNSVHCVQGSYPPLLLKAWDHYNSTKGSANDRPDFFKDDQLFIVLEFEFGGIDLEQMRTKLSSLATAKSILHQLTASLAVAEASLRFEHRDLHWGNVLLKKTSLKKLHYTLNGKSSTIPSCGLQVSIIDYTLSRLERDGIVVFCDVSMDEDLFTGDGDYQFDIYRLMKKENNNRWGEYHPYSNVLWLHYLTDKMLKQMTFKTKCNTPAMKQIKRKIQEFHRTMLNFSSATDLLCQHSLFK

[18] = target: Glycogen synthase kinase-3 (Sus scrofa) (UniProt B2LUN4+I6LNT8); assay: Inhibition of pig GSK3alpha/beta using GS-1 as substrate in presence of [gamma33P]ATP after 30 mins by scintillation counting method
MDA-MB-231 [19] = assay: Cytotoxicity against human MDA-MB-231 cells by MTT assay; assay type: functional, cell-based
MCF7 [20] = assay: Cytotoxicity against human MCF7 cells by MTT assay; assay type: functional, cell-based
HCC1954 [21] = assay: Cytotoxicity against human HCC1954 cells by MTT assay; assay type: functional, cell-based
[22] = target: Receptor-type tyrosine-protein kinase FLT3 (Homo sapiens) (UniProt P36888); assay: Inhibition of recombinant human GST-tagged FLT3 (571 to 993 residues) transphosphorylation activity expressed in baculovirus infected Sf9 cells using poly[Glu:Tyr] (4:1) as substrate after 60 mins
SK-BR-3 = assay: Cytotoxicity against human SKBR3 cells by MTT assay; assay type: functional, cell-based
[23] = target: Platelet-derived growth factor receptor beta (Homo sapiens) (UniProt P09619); assay: Inhibition of recombinant human GST-tagged PDGFR-beta (557-end residues) transphosphorylation activity expressed in baculovirus infected Sf9 cells using poly[Glu:Tyr] (4:1) as substrate after 60 mins
[24] = target: Mast/stem cell growth factor receptor Kit (Homo sapiens) (UniProt P10721); assay: Inhibition of recombinant human GST-tagged KIT (544-end residues) transphosphorylation activity expressed in baculovirus infected Sf9 cells using poly[Glu:Tyr] (4:1) as substrate after 60 mins
Chain of Mast/stem cell growth factor receptor Kit (Homo sapiens) (P10721 whole entry): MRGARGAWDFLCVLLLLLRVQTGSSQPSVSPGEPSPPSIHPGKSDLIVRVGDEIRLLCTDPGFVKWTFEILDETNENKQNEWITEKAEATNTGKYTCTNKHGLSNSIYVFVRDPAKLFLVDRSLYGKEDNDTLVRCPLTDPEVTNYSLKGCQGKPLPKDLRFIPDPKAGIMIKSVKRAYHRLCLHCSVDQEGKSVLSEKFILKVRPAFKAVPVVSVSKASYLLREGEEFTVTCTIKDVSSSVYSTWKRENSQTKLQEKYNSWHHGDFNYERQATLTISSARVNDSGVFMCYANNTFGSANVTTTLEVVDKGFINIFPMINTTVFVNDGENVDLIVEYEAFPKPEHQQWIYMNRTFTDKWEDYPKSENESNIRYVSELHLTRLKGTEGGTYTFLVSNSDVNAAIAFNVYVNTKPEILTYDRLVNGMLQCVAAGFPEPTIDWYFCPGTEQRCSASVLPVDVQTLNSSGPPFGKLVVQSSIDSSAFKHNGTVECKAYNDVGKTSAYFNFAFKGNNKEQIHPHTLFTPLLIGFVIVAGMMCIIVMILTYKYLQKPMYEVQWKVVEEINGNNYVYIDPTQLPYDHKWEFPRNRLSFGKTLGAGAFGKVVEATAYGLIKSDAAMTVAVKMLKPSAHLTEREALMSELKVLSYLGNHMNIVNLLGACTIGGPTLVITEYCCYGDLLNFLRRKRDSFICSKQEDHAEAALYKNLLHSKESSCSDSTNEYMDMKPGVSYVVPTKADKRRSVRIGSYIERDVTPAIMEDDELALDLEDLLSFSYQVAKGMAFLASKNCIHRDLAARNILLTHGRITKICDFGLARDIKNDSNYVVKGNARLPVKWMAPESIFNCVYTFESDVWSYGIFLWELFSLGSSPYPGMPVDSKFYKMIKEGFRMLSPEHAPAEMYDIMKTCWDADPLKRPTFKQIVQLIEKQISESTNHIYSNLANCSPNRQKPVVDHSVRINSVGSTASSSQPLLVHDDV

Chain of Vascular endothelial growth factor receptor 2 (Homo sapiens) (P35968 whole entry): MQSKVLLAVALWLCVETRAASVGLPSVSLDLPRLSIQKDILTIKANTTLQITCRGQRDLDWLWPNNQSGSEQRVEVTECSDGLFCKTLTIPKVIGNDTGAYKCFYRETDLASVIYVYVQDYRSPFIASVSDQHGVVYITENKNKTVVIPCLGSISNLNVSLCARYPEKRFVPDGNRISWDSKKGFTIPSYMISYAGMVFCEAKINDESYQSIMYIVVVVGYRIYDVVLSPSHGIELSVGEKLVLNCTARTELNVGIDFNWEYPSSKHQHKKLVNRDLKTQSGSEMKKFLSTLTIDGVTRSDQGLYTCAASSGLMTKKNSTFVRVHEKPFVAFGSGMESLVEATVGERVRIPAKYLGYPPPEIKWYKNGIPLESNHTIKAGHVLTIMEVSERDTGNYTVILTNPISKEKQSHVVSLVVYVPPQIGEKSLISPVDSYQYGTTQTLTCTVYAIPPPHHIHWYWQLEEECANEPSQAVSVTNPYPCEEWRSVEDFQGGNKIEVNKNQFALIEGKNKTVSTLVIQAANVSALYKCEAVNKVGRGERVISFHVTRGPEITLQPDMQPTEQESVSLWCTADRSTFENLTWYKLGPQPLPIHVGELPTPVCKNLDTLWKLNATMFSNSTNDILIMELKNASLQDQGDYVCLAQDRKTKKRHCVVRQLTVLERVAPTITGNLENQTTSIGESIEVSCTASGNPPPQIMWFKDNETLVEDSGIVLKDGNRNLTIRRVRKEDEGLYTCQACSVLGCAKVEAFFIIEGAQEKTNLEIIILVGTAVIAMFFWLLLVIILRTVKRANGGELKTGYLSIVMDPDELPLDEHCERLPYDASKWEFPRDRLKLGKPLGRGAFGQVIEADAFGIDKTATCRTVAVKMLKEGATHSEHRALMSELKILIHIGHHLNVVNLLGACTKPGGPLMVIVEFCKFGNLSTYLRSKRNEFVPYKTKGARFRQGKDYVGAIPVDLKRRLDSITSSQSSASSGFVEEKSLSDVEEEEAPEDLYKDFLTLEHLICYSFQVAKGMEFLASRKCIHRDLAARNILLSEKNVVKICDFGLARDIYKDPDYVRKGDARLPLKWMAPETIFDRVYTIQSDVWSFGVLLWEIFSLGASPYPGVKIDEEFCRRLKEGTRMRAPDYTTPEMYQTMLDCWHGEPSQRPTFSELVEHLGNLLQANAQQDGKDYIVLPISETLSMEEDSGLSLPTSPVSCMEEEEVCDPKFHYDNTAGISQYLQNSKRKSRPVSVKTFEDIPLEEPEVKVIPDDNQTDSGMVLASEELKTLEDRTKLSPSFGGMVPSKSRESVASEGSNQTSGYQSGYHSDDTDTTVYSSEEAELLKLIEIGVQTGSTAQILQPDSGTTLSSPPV
Chain of Dual specificity protein kinase CLK1 (Mus musculus) (P22518 whole entry, looked up): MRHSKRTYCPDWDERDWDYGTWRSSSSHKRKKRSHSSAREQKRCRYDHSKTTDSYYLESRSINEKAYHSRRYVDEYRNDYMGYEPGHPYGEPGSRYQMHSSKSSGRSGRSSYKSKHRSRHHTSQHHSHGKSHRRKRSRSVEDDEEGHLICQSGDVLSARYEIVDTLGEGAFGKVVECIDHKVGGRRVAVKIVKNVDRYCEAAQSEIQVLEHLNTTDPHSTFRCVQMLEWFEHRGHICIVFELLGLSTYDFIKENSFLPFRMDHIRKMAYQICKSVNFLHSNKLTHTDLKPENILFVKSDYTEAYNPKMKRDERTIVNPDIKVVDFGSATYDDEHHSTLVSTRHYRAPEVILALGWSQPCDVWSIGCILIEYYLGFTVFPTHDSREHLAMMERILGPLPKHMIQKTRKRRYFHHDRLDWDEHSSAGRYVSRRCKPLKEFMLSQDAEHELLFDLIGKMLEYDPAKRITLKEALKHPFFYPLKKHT
Chain of Phosphatidylinositol 4,5-bisphosphate 3-kinase catalytic subunit alpha isoform (P42336 whole entry, the tested form may be a part, canonical isoform): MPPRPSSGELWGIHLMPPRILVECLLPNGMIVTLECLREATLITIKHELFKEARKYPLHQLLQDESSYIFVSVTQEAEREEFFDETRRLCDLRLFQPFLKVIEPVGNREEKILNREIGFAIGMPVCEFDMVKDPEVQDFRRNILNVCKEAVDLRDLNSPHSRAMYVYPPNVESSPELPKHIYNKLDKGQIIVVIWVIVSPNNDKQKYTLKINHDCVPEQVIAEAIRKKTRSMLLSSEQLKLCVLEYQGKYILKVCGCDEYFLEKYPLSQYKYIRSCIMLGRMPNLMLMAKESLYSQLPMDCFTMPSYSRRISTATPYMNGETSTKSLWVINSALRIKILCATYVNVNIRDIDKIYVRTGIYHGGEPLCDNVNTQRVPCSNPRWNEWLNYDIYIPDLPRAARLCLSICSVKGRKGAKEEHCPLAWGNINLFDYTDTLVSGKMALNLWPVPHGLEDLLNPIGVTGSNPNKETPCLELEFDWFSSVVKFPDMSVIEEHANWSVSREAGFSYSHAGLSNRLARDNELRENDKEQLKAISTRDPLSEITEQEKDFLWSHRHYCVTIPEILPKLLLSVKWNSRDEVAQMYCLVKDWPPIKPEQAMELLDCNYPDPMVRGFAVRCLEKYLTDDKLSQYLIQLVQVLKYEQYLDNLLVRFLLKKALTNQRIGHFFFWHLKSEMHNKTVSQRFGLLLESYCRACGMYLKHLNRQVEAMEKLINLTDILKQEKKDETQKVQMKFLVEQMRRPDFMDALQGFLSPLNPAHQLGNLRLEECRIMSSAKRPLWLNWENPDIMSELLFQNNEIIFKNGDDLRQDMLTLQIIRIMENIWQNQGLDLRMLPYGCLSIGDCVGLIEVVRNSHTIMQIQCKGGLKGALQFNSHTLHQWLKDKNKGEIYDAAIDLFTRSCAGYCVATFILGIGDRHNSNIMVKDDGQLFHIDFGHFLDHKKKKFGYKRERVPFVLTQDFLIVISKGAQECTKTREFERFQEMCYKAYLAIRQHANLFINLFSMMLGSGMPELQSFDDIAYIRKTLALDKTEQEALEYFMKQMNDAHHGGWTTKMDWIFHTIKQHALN
Chain of Receptor-interacting serine/threonine-protein kinase 3 (Homo sapiens) (Q9Y572 whole entry, looked up): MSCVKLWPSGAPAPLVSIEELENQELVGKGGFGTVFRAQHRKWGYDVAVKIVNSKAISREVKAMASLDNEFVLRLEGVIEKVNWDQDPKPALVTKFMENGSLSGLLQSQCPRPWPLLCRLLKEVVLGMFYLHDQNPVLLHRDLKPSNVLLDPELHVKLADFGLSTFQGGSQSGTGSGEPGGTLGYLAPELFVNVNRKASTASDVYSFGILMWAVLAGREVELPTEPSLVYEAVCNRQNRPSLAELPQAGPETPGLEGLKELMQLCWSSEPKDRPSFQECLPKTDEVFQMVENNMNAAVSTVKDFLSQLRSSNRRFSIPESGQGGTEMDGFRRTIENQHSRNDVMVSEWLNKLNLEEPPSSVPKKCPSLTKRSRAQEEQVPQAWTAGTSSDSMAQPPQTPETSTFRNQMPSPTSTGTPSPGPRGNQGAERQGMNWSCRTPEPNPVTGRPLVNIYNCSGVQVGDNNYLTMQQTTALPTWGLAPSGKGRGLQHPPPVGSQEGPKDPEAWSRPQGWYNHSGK
Chain of Cyclin-dependent kinase 5/CDK5 activator 1 (Homo sapiens) (Q00535 whole entry): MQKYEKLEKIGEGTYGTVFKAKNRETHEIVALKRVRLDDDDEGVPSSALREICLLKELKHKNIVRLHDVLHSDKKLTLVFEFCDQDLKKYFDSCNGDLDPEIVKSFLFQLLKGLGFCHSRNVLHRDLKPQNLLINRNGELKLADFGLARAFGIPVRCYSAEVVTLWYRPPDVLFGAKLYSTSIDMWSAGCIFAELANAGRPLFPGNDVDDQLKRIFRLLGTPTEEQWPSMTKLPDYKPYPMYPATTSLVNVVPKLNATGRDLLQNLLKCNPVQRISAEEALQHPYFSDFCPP
Chain of Cyclin-dependent kinase 5/CDK5 activator 1 (Homo sapiens) (Q15078 99-307 partner limits assumed): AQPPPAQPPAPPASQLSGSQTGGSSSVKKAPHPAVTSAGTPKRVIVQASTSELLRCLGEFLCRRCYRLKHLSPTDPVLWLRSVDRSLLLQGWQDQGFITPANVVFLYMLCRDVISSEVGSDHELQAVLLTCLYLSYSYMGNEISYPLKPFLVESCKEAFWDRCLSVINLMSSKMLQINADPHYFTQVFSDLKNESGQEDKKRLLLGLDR

Row | Compound | Activity (MCF7 [1]) | Activity (MDA-MB-231 [2]) | Activity (HCC1954 [3]) | Activity (T47D [4]) | Activity (MDA-MB-231 [5]) | Activity (MCF7 [6]) | Activity (HCC1954 [7]) | Activity (T47D [8]) | other results
1 | Cc1nc2nc(Sc3ccccc3)cnc2cc1N | <50% | <50% | <50% | <50% | <50% | <50% | <50% | <50% | –
2 | Cc1nc2nc(Sc3ccccc3)cnc2cc1NC(=O)Nc1ccc(F)c(Cl)c1 | <50% | <50% | <50% | <50% | <50% | <50% | <50% | <50% | –
3 | Cc1nc2nc(Sc3ccccc3)cnc2cc1NC(=O)c1ccc([N+](=O)[O-])cc1 | <50% | <50% | <50% | <50% | <50% | <50% | <50% | <50% | –
4 | Cc1ccc(C(=O)Nc2cc3ncc(Sc4ccccc4)nc3nc2C)cc1 | <50% | <50% | <50% | <50% | <50% | <50% | <50% | <50% | –
5 | Cc1ccc(C(=O)Nc2cc3nccnc3nc2C)cc1 | <50% | <50% | <50% | <50% | <50% | <50% | <50% | <50% | –
6 | Cc1nc2nccnc2cc1NC(=O)CN1CCN(C)CC1 | <50% | <50% | <50% | <50% | <50% | <50% | <50% | <50% | –
7 | Cc1nc2nc(Sc3ccccc3)cnc2cc1NC(=O)c1ccccc1C(F)(F)F | <50% | <50% | <50% | <50% | <50% | <50% | <50% | <50% | –
8 | Cc1nc2nccnc2cc1NC(=O)c1ccc([N+](=O)[O-])cc1 | <50% | <50% | <50% | <50% | <50% | <50% | <50% | <50% | –
9 | Cc1nc2nccnc2cc1NC(=O)c1cccc(C(F)(F)F)c1 | <50% | <50% | <50% | <50% | <50% | <50% | <50% | <50% | –
10 | COc1cc(C(=O)Nc2cc3ncc(Sc4ccccc4)nc3nc2C)cc(OC)c1OC | <50% | <50% | <50% | <50% | <50% | <50% | <50% | <50% | –
11 | Cc1nc2nccnc2cc1NC(=O)CN(C)C | <50% | <50% | <50% | <50% | <50% | <50% | <50% | <50% | –
12 | Cc1nc2nc(Sc3ccccc3)cnc2cc1NC(=O)CN(C)C | <50% | <50% | <50% | <50% | <50% | <50% | <50% | <50% | –
13 | Cc1nc2nccnc2cc1NC(=O)c1ccccc1 | <50% | <50% | <50% | <50% | <50% | <50% | <50% | <50% | –
14 | COc1cc(C(=O)Nc2cc3nccnc3nc2C)cc(OC)c1OC | <50% | <50% | <50% | <50% | <50% | <50% | <50% | <50% | –
15 | Cc1nc2nc(Sc3ccccc3)cnc2cc1NC(=O)Nc1cccc(C(F)(F)F)c1 | <50% | <50% | <50% | <50% | <50% | <50% | <50% | <50% | –
16 | Cc1nc2nc(Sc3ccccc3)cnc2cc1NC(=O)c1cccc(C(F)(F)F)c1 | <50% | <50% | <50% | <50% | <50% | <50% | <50% | <50% | –
17 | Cc1nc2nc(Oc3ccccc3)cnc2cc1NC(=O)Nc1ccccc1 | >50% | >50% | >50% | >50% | >50% | >50% | >50% | >50% | inhibition [9]: inactive; inhibition (Sus scrofa): inactive; inhibition [10]: inactive; inhibition [11]: inactive; IC50 (T47D [12]): 9.4 µM; inhibition [13]: inactive; inhibition [14]: inactive; inhibition [15]: inactive; inhibition [16]: inactive; inhibition [17]: inactive; inhibition [18]: inactive; IC50 (MDA-MB-231 [19]): 5.1 µM; IC50 (MCF7 [20]): 7 µM; IC50 (HCC1954 [21]): 5.3 µM; inhibition [22]: inactive; IC50 (SK-BR-3): 7.2 µM; inhibition [23]: inactive; inhibition [24]: inactive
18 | CSc1ccc(NC(=O)Nc2cc3ncc(Sc4ccccc4)nc3nc2C)cc1 | <50% | <50% | <50% | <50% | <50% | <50% | <50% | <50% | –
19 | Cc1nc2nc(Sc3ccccc3)cnc2cc1NC(=O)CN1CCN(C)CC1 | <50% | <50% | <50% | <50% | <50% | <50% | <50% | <50% | –
20 | Cc1nc2nc(Sc3ccccc3)cnc2cc1NC(=O)Nc1ccc(F)c([N+](=O)[O-])c1 | <50% | <50% | <50% | <50% | <50% | <50% | <50% | <50% | –
